In ChEMBL document CHEMBL3868619, “Synthesis and biological assessment of novel N-(hydroxy/methoxy)alkyl β-enaminone curcuminoids” (Bioorg Med Chem Lett, 2016):
Converted amounts (≈) assume the structure as drawn.

Columns and labels:
[1] = Cytotoxicity against CHOK1 cells assessed as decrease in cell viability after 48 hrs by MTT assay; type: toxicity, cell-based, Cricetulus griseus; details: Chinese hamster, CHO-K1 cells
HT-29 [2] = assay: Induction of ROS generation in human HT-29 cells at 10 uM using DCFH-DA by fluorescence assay relative to control; type: functional
Caco-2 [3] = assay: Induction of ROS generation in human Caco2 cells at 10 uM using DCFH-DA by fluorescence assay relative to control; type: functional
HepG2 [4] = assay: Induction of ROS generation in human HepG2 cells at 1 uM using DCFH-DA by fluorescence assay relative to control; type: functional
[5] = Induction of ROS generation in CHOK1 cells at 10 uM using DCFH-DA by fluorescence assay relative to control; type: cell-based, Cricetulus griseus; details: chinese hamster, cho-k1, 10 µM
[6] = Cytotoxicity against human HT-29 cells assessed as decrease in cell viability after 48 hrs by MTT assay; type: functional, cell-based; details: HT-29, 48 h
[7] = Solubility of the compound in dimethyl sulfoxide; type: physicochemical
[8] = Induction of ROS generation in CHOK1 cells at 1 uM using DCFH-DA by fluorescence assay relative to control; type: cell-based, Cricetulus griseus; details: chinese hamster, cho-k1, 1 µM
[9] = Solubility of the compound in acetone; type: physicochemical
[10] = Solubility of the compound in ethyl acetate; type: physicochemical
EA.hy 926 [11] = assay: Induction of ROS generation in human EAhy926 cells at 10 uM using DCFH-DA by fluorescence assay relative to control; type: functional
[12] = Solubility of the compound in dimethylformamide; type: physicochemical
[13] = Aqueous solubility of the compound in sodium phosphate buffer at pH 6.8 after 24 hrs by shake flask method; type: physicochemical
HT-29 [14] = assay: Induction of ROS generation in human HT-29 cells at 1 uM using DCFH-DA by fluorescence assay relative to control; type: functional
[15] = Antioxidant activity assessed as DPPH radical scavenging activity after 30 mins by spectrophotometric analysis; type: functional
Caco-2 [16] = assay: Induction of ROS generation in human Caco2 cells at 1 uM using DCFH-DA by fluorescence assay relative to control; type: functional
[17] = Cytotoxicity against human HepG2 cells assessed as decrease in cell viability after 48 hrs by MTT assay; type: functional, cell-based; details: HepG2, 48 h
HepG2 [18] = assay: Induction of ROS generation in human HepG2 cells at 10 uM using DCFH-DA by fluorescence assay relative to control; type: functional
[19] = Chemical stability of the compound sodium phosphate buffer at pH 6.8 after 24 hrs by LC-MS analysis; type: physicochemical; details: pH 6.8, 24 h
[20] = Solubility of the compound in ethanol; type: physicochemical
EA.hy 926 [21] = assay: Induction of ROS generation in human EAhy926 cells at 1 uM using DCFH-DA by fluorescence assay relative to control; type: functional
[22] = Cytotoxicity against human Caco2 cells assessed as decrease in cell viability after 48 hrs by MTT assay; type: functional, cell-based; details: Caco-2, 48 h
[23] = Solubility of the compound in methanol; type: physicochemical
[24] = Aqueous solubility of the compound in sodium phosphate buffer at pH 6.8 after 90 mins by shake flask method; type: physicochemical
[25] = Solubility of the compound in 2-methyl-THF; type: physicochemical
[26] = Cytotoxicity against human EAhy926 cells assessed as decrease in cell viability after 48 hrs by MTT assay; type: toxicity, cell-based, EA.hy 926; details: EA.hy926 cells

COCCCNC(=C\C(=O)/C=C/c1ccc(O)cc1)/C=C/c1ccc(O)cc1
IC50 at 48 h [1]: 44.9 µM
Activity (HT-29 [2]): 95.7%
Activity (Caco-2 [3]): 89%
Activity (HepG2 [4]): 79.5%
Activity [5]: 97%
IC50 [6]: 51.9 µM
solubility [7]: Soluble
Activity [8]: 99.8%
solubility [9]: Insoluble
solubility [10]: Insoluble
Activity (EA.hy 926 [11]): 98.7%
solubility [12]: Soluble
solubility thermodynamic at 24 h [13]: 14.8 µM (≈ 5.63 µg/mL)
Activity (HT-29 [14]): 98%
EC50 [15]: 130 µM
Activity (Caco-2 [16]): 97%
IC50 [17]: 61.9 µM
Activity (HepG2 [18]): 71.6%
Stability [19]: Stable
solubility [20]: Soluble
Activity (EA.hy 926 [21]): 107.6%
IC50 [22]: 24 µM
solubility [23]: Soluble
solubility thermodynamic at 1.5 h [24]: 10.4 µM (≈ 3.97 µg/mL)
solubility [25]: Insoluble
IC50 at 48 h [26]: 81.9 µM

COCCNC(=C\C(=O)/C=C/c1ccc(O)cc1)/C=C/c1ccc(O)cc1
IC50 at 48 h [1]: 34.9 µM
Activity (HT-29 [2]): 96.8%
Activity (Caco-2 [3]): 89.7%
Activity (HepG2 [4]): 76.4%
Activity [5]: 75.1%
IC50 [6]: 57.4 µM
solubility [7]: Soluble
Activity [8]: 82.5%
solubility [9]: Insoluble
solubility [10]: Insoluble
Activity (EA.hy 926 [11]): 134.2%
solubility [12]: Soluble
solubility thermodynamic at 24 h [13]: 46.1 µM (≈ 16.8 µg/mL)
Activity (HT-29 [14]): 97%
EC50 [15]: > 200 µM
Activity (Caco-2 [16]): 94.9%
IC50 [17]: 63.3 µM
Activity (HepG2 [18]): 77.9%
Stability [19]: Stable
solubility [20]: Soluble
Activity (EA.hy 926 [21]): 130.3%
IC50 [22]: 28 µM
solubility [23]: Soluble
solubility thermodynamic at 1.5 h [24]: 37.5 µM (≈ 13.7 µg/mL)
solubility [25]: Insoluble
IC50 at 48 h [26]: 45.1 µM

COCCCN1C(/C=C/c2ccc(O)cc2)=CC(=O)CC1c1ccc(O)cc1 (centres undefined)
IC50 at 48 h [1]: > 100 µM
Activity (HT-29 [2]): 74.7%
Activity (Caco-2 [3]): 99.4%
Activity (HepG2 [4]): 93.2%
Activity [5]: 91.7%
IC50 [6]: > 100 µM
Activity [8]: 97.8%
Activity (EA.hy 926 [11]): 118.6%
solubility thermodynamic at 24 h [13]: 38.8 µM (≈ 14.7 µg/mL)
Activity (HT-29 [14]): 90.5%
EC50 [15]: > 200 µM
Activity (Caco-2 [16]): 99%
IC50 [17]: > 100 µM
Activity (HepG2 [18]): 96.2%
Stability [19]: Stable
Activity (EA.hy 926 [21]): 116.4%
IC50 [22]: > 100 µM
solubility thermodynamic at 1.5 h [24]: 25.8 µM (≈ 9.8 µg/mL)
IC50 at 48 h [26]: > 100 µM

COCCCNC(=C\C(=O)/C=C/c1ccc(O)c(OC)c1)/C=C/c1ccc(O)c(OC)c1
IC50 at 48 h [1]: 53.7 µM
Activity (HT-29 [2]): 95%
Activity (Caco-2 [3]): 84.8%
Activity (HepG2 [4]): 68.5%
Activity [5]: 81.2%
IC50 [6]: 72.2 µM
solubility [7]: Soluble
Activity [8]: 98.3%
solubility [9]: Insoluble
solubility [10]: Insoluble
Activity (EA.hy 926 [11]): 89.9%
solubility [12]: Soluble
solubility thermodynamic at 24 h [13]: 9.66 µM (≈ 4.25 µg/mL)
Activity (HT-29 [14]): 99.5%
EC50 [15]: 29.5 µM
Activity (Caco-2 [16]): 97.9%
IC50 [17]: > 100 µM
Activity (HepG2 [18]): 77.5%
Stability [19]: Stable
solubility [20]: Soluble
Activity (EA.hy 926 [21]): 91.5%
IC50 [22]: 49.1 µM
solubility [23]: Soluble
solubility thermodynamic at 1.5 h [24]: 7.7 µM (≈ 3.38 µg/mL)
solubility [25]: Insoluble
IC50 at 48 h [26]: > 100 µM

COc1cc(/C=C/C2=CC(=O)CC(c3ccc(O)c(OC)c3)N2CCCO)ccc1O (centres undefined)
IC50 at 48 h [1]: > 100 µM
Activity (HT-29 [2]): 96.5%
Activity (Caco-2 [3]): 91%
Activity (HepG2 [4]): 95.2%
Activity [5]: 80.3%
IC50 [6]: > 100 µM
Activity [8]: 91.8%
Activity (EA.hy 926 [11]): 123.5%
solubility thermodynamic at 24 h [13]: 62.9 µM (≈ 26.8 µg/mL)
Activity (HT-29 [14]): 98.1%
EC50 [15]: 33.9 µM
Activity (Caco-2 [16]): 95.6%
IC50 [17]: > 100 µM
Activity (HepG2 [18]): 96.3%
Stability [19]: Stable
Activity (EA.hy 926 [21]): 122%
IC50 [22]: 88 µM
solubility thermodynamic at 1.5 h [24]: 58.9 µM (≈ 25.1 µg/mL)
IC50 at 48 h [26]: > 100 µM

O=C(/C=C/c1ccc(O)cc1)CC(=O)/C=C/c1ccc(O)cc1 [BISDEMETHOXYCURCUMIN]
IC50 at 48 h [1]: 91.4 µM
Activity (HT-29 [2]): 95.4%
Activity (Caco-2 [3]): 88.8%
Activity (HepG2 [4]): 88.8%
Activity [5]: 107.9%
IC50 [6]: > 100 µM
Activity [8]: 104.6%
Activity (EA.hy 926 [11]): 104.6%
solubility thermodynamic at 24 h [13]: 4.3 µM (≈ 1.33 µg/mL)
Activity (HT-29 [14]): 101.1%
EC50 [15]: > 200 µM
Activity (Caco-2 [16]): 100.1%
IC50 [17]: > 100 µM
Activity (HepG2 [18]): 69.4%
Stability [19]: Stable
Activity (EA.hy 926 [21]): 95.8%
IC50 [22]: > 100 µM
solubility thermodynamic at 1.5 h [24]: 3.18 µM (≈ 0.98 µg/mL)
IC50 at 48 h [26]: 54.3 µM

Cc1c(C)c2c(c(C)c1O)CCC(C)(C(=O)O)O2 (centres undefined) [TROLOX]
EC50 [15]: 29.6 µM

O=C1C=C(/C=C/c2ccc(O)cc2)N(CCO)C(c2ccc(O)cc2)C1 (centres undefined)
IC50 at 48 h [1]: > 100 µM
Activity (HT-29 [2]): 98.8%
Activity (Caco-2 [3]): 91.5%
Activity (HepG2 [4]): 105.4%
Activity [5]: 87.6%
IC50 [6]: > 100 µM
Activity [8]: 99.4%
Activity (EA.hy 926 [11]): 101.4%
solubility thermodynamic at 24 h [13]: 29.9 µM (≈ 10.5 µg/mL)
Activity (HT-29 [14]): 100.8%
EC50 [15]: 49.4 µM
Activity (Caco-2 [16]): 95.3%
IC50 [17]: > 100 µM
Activity (HepG2 [18]): 100.1%
Stability [19]: Stable
Activity (EA.hy 926 [21]): 106.9%
IC50 [22]: > 100 µM
solubility thermodynamic at 1.5 h [24]: 29.2 µM (≈ 10.3 µg/mL)
IC50 at 48 h [26]: > 100 µM

COc1cc(/C=C/C(=O)CC(=O)/C=C/c2ccc(O)c(OC)c2)ccc1O [CURCUMIN]
IC50 at 48 h [1]: 42 µM
Activity (HT-29 [2]): 87.3%
Activity (Caco-2 [3]): 94.8%
Activity (HepG2 [4]): 93.7%
Activity [5]: 101%
IC50 [6]: 51.7 µM
Activity [8]: 103.9%
Activity (EA.hy 926 [11]): 98.8%
solubility thermodynamic at 24 h [13]: 1.25 µM (≈ 0.46 µg/mL)
Activity (HT-29 [14]): 97.3%
EC50 [15]: 31.5 µM
Activity (Caco-2 [16]): 89.1%
IC50 [17]: 72.7 µM
Activity (HepG2 [18]): 99.1%
Stability [19]: Stable
Activity (EA.hy 926 [21]): 105.5%
IC50 [22]: 38.3 µM
solubility thermodynamic at 1.5 h [24]: 1.51 µM (≈ 0.556 µg/mL)
IC50 at 48 h [26]: 24.6 µM
